From patent US12677832B2, “Oxadiazole compounds for controlling or preventing phytopathogenic fungi” (PI INDUSTRIES LTD., priority 2019, dated 2026)

Columns and labels:
Phakopsora pachyrhizi = Phakopsora pachyrhizi Test in Soybean (preventive spray); format: in vivo; settings: preventive spray on Soybean plants, inoculated one day after treatment, disease severity vs untreated control
Protocol: Example 7: Phakopsora pachyrhizi Test in Soybean Compounds were dissolved in 2% dimethyl sulfoxide/acetone and then mixed with water containing an emulsifier to a calibrated spray volume of 50 mL. This 50 mL spray solution was poured into spray bottles for further applications. To test the preventive activity of compounds, healthy young Soybean plants, raised in the greenhouse, were sprayed with the active compound preparation at the stated application rates inside the spray cabinets using hollow cone nozzles. One day after treatment, the plants were inoculated with a spore suspension containing 2×10^5Phakopsora pachyrhizi conidia. The inoculated plants were then kept in a greenhouse chamber at 22-24° C. temperature and 80-90% relative humidity for disease expression. A visual assessment of the compound's performance was carried out by rating the disease severity (0-100% scale) on treated plants 3, 7, 10 and 15 days after application. Efficacy (% control) of the compounds was calculated by comparing the disease rating in the treatment with the one of the untreated control. The sprayed plants were also assessed for plant compatibility by recording symptoms like necrosis, chlorosis and stunting.

Colletotrichum capsici = Colletotrichum capsici (Anthracnose) radial growth on potato dextrose agar; format: cell-based; settings: Colletotrichum truncatum, 168 h, radial growth after seven days compared to untreated control
Alternaria solani = Alternaria solani (Early Blight of Tomato/Potato) radial growth on potato dextrose agar; format: cell-based; settings: 168 h, radial growth after seven days compared to untreated control
Pyricularia oryzae = assay: microbe, parasite or virus in culture; format: cell-based; settings: 168 h, read-out: control
Botrytis cinerea = Botrytis cinerea (Gray Mold) radial growth on potato dextrose agar; format: cell-based; settings: 300 ppm; radial growth after seven days compared to untreated control
Fusarium culmorum = Fusarium culmorum (Foot Rot of Cereals) radial growth on potato dextrose agar; format: cell-based; settings: 300 ppm; radial growth after seven days compared to untreated control
Protocol: Example 6: Fusarium culmorum (Foot Rot of Cereals)
Compounds were dissolved in 0.3% dimethyl sulfoxide and then added to potato dextrose agar medium just prior to dispensing it into petri dishes. 5 mL medium with the compound in the desired concentration was dispensed into 60 mm sterile petri-plates. After solidification each plate was seeded with a 5 mm size mycelial disc taken from the periphery of an actively growing virulent culture plate. Plates were incubated in growth chambers at 25° C. temperature and 60% relative humidity for seven days and then the radial growth was measured and compared to that of the untreated control.

O=C(COc1cc(Cl)cc(Cl)c1)c1ccc(-c2noc(C(F)(F)F)n2)cc1 [Compound 15, 2-(3,5-dichlorophenoxy)-1-(4-(5-(trifluoromethyl)-1,2,4-oxadiazol-3-yl)phenyl)ethan-1-one]
pest or weed control at 500 ppm (Phakopsora pachyrhizi): ≥ 70% | inhibition of growth at 300 ppm (Colletotrichum capsici): ≥ 70%

Cc1ccc(Cl)cc1OCC(=O)c1ccc(-c2noc(C(F)(F)F)n2)cc1 [Compound 17, 2-(5-chloro-2-methylphenoxy)-1-(4-(5-(trifluoromethyl)-1,2,4-oxadiazol-3-yl)phenyl)ethan-1-one]
pest or weed control at 500 ppm (Phakopsora pachyrhizi): ≥ 70% | inhibition of growth at 300 ppm (Alternaria solani): ≥ 70%

O=C(COc1ccc(F)cc1F)c1ccc(-c2noc(C(F)(F)F)n2)cc1 [Compound 18, 2-(2,4-difluorophenoxy)-1-(4-(5-(trifluoromethyl)-1,2,4-oxadiazol-3-yl)phenyl)ethan-1-one]
pest or weed control at 500 ppm (Phakopsora pachyrhizi): ≥ 70% | inhibition of growth at 300 ppm (Alternaria solani): ≥ 70%

O=C(COc1cccnc1)c1ccc(-c2noc(C(F)(F)F)n2)cc1 [Compound 21, 2-(pyridin-3-yloxy)-1-(4-(5-(trifluoromethyl)-1,2,4-oxadiazol-3-yl)phenyl)ethan-1-one]
pest or weed control at 500 ppm (Phakopsora pachyrhizi): ≥ 70% | inhibition of growth at 300 ppm (Alternaria solani): ≥ 70%

O=C(CNc1ccc(F)c(F)c1)c1ccc(-c2noc(C(F)(F)F)n2)cc1 [Compound 27, 2-((3,4-difluorophenyl)amino)-1-(4-(5-(trifluoromethyl)-1,2,4-oxadiazol-3-yl)phenyl)ethan-1-one]
pest or weed control at 500 ppm (Phakopsora pachyrhizi): ≥ 70% | inhibition of growth at 300 ppm (Alternaria solani): ≥ 70%

Cc1ccccc1OCC(=O)c1ccc(-c2noc(C(F)(F)F)n2)cc1 [Compound 39, 2-(o-tolyloxy)-1-(4-(5-(trifluoromethyl)-1,2,4-oxadiazol-3-yl)phenyl)ethan-1-one]
inhibition of growth at 300 ppm (Alternaria solani): ≥ 70%

C=CCSCC(=O)c1ccc(-c2noc(C(F)(F)F)n2)cc1 [Compound 61, 2-(allylthio)-1-(4-(5-(trifluoromethyl)-1,2,4-oxadiazol-3-yl)phenyl)ethan-1-one]
inhibition of growth at 300 ppm (Alternaria solani): ≥ 70%

O=C(CSc1ccncc1)c1ccc(-c2noc(C(F)(F)F)n2)cc1 [Compound 68, 2-(pyridin-4-ylthio)-1-(4-(5-(trifluoromethyl)-1,2,4-oxadiazol-3-yl)phenyl)ethan-1-one]
inhibition of growth at 300 ppm (Alternaria solani): ≥ 70%

CC(C)SCC(=O)c1ccc(-c2noc(C(F)(F)F)n2)cc1 [Compound 69, 2-(isopropylthio)-1-(4-(5-(trifluoromethyl)-1,2,4-oxadiazol-3-yl)phenyl)ethan-1-one]
inhibition of growth at 300 ppm (Pyricularia oryzae): ≥ 70% | inhibition of growth at 300 ppm (Alternaria solani): ≥ 70%

O=C(C[S+]([O-])Cc1ccccc1)c1ccc(-c2noc(C(F)(F)F)n2)cc1 (centres unmarked) [Compound 80, 2-(benzylsulfinyl)-1-(4-(5-(trifluoromethyl)-1,2,4-oxadiazol-3-yl)phenyl)ethan-1-one]
inhibition of growth at 300 ppm (Pyricularia oryzae): ≥ 70% | inhibition of growth at 300 ppm (Alternaria solani): ≥ 70%

CC(C)(C)[S+]([O-])CC(=O)c1ccc(-c2noc(C(F)(F)F)n2)cc1 (centres unmarked) [Compound 91, 2-(tert-butylsulfinyl)-1-(4-(5-(trifluoromethyl)-1,2,4-oxadiazol-3-yl)phenyl)ethan-1-one]
inhibition of growth at 300 ppm (Pyricularia oryzae): ≥ 70% | inhibition of growth at 300 ppm (Alternaria solani): ≥ 70%

O=C(CS(=O)(=O)c1nccs1)c1ccc(-c2noc(C(F)(F)F)n2)cc1 [Compound 107, 2-(thiazol-2-ylsulfonyl)-1-(4-(5-(trifluoromethyl)-1,2,4-oxadiazol-3-yl)phenyl)ethan-1-one]
inhibition of growth at 300 ppm (Colletotrichum capsici): ≥ 70%

O=C(CS(=O)(=O)c1ccncc1)c1ccc(-c2noc(C(F)(F)F)n2)cc1 [Compound 112, 2-(pyridin-4-ylsulfonyl)-1-(4-(5-(trifluoromethyl)-1,2,4-oxadiazol-3-yl)phenyl)ethan-1-one]
inhibition of growth at 300 ppm (Pyricularia oryzae): ≥ 70% | inhibition of growth at 300 ppm (Alternaria solani): ≥ 70%

O=C(COc1ccccc1F)c1ccc(-c2noc(C(F)(F)F)n2)cn1 [Compound 114, 2-(2-fluorophenoxy)-1-(5-(5-(trifluoromethyl)-1,2,4-oxadiazol-3-yl)pyridin-2-yl)ethan-1-one]
control (Botrytis cinerea): ≥ 70% | inhibition of growth at 300 ppm (Pyricularia oryzae): ≥ 70%

O=C(CSC1CCCC1)c1ccc(-c2noc(C(F)(F)F)n2)cn1 [Compound 119, 2-(cyclopentylthio)-1-(5-(5-(trifluoromethyl)-1,2,4-oxadiazol-3-yl)pyridin-2-yl)ethan-1-one]
inhibition of growth at 300 ppm (Pyricularia oryzae): ≥ 70% | inhibition of growth at 300 ppm (Alternaria solani): ≥ 70%

O=C(C[S+]([O-])c1cccc(F)c1)c1ccc(-c2noc(C(F)(F)F)n2)cn1 (centres unmarked) [Compound 128, 2-((3-fluorophenyl)sulfinyl)-1-(5-(5-(trifluoromethyl)-1,2,4-oxadiazol-3-yl)pyridin-2-yl)ethan-1-one]
inhibition of growth at 300 ppm (Pyricularia oryzae): ≥ 70% | inhibition of growth at 300 ppm (Alternaria solani): ≥ 70%

COc1ccc([S+]([O-])CC(=O)c2ccc(-c3noc(C(F)(F)F)n3)cn2)cc1 (centres unmarked) [Compound 129, 2-((4-methoxyphenyl)sulfinyl)-1-(5-(5-(trifluoromethyl)-1,2,4-oxadiazol-3-yl)pyridin-2-yl)ethan-1-one]
inhibition of growth at 300 ppm (Colletotrichum capsici): ≥ 70%

O=C(C[S+]([O-])c1c(Cl)cccc1Cl)c1ccc(-c2noc(C(F)(F)F)n2)cn1 (centres unmarked) [Compound 132, 2-((2,6-dichlorophenyl)sulfinyl)-1-(5-(5-(trifluoromethyl)-1,2,4-oxadiazol-3-yl)pyridin-2-yl)ethan-1-one]
inhibition of growth at 300 ppm (Alternaria solani): ≥ 70%

O=C(C[S+]([O-])C1CCCC1)c1ccc(-c2noc(C(F)(F)F)n2)cn1 (centres unmarked) [Compound 133, 2-(cyclopentylsulfinyl)-1-(5-(5-(trifluoromethyl)-1,2,4-oxadiazol-3-yl)pyridin-2-yl)ethan-1-one]
inhibition of growth at 300 ppm (Pyricularia oryzae): ≥ 70% | inhibition of growth at 300 ppm (Alternaria solani): ≥ 70%

CN1CCN(CC(=O)c2ccc(-c3noc(C(F)(F)F)n3)cc2)CC1 [Compound 135, 2-(4-methylpiperazin-1-yl)-1-(4-(5-(trifluoromethyl)-1,2,4-oxadiazol-3-yl)phenyl)ethan-1-one]
pest or weed control at 500 ppm (Phakopsora pachyrhizi): ≥ 70% | inhibition of growth at 300 ppm (Alternaria solani): ≥ 70% | inhibition of growth at 300 ppm (Colletotrichum capsici): ≥ 70%

O=C(CNc1ccc(Cl)c(C(F)(F)F)c1)c1ccc(-c2noc(C(F)(F)F)n2)cc1 [Compound 140, 2-((4-chloro-3-(trifluoromethyl)phenyl)amino)-1-(4-(5-(trifluoromethyl)-1,2,4-oxadiazol-3-yl)phenyl)ethan-1-one]
control (Fusarium culmorum): ≥ 70% | inhibition of growth at 300 ppm (Alternaria solani): ≥ 70%

O=C(CNc1cccc(C(F)(F)F)c1)c1ccc(-c2noc(C(F)(F)F)n2)cc1 [Compound 141, 1-(4-(5-(trifluoromethyl)-1,2,4-oxadiazol-3-yl)phenyl)-2-((3-(trifluoromethyl)phenyl)amino)ethan-1-one]
inhibition of growth at 300 ppm (Colletotrichum capsici): ≥ 70%

Cc1cccc(NCC(=O)c2ccc(-c3noc(C(F)(F)F)n3)cc2)c1 [Compound 144, 2-(m-tolylamino)-1-(4-(5-(trifluoromethyl)-1,2,4-oxadiazol-3-yl)phenyl)ethan-1-one]
inhibition of growth at 300 ppm (Colletotrichum capsici): ≥ 70%

COc1ccc(NCC(=O)c2ccc(-c3noc(C(F)(F)F)n3)cc2)cc1 [Compound 145, 2-((4-methoxyphenyl)amino)-1-(4-(5-(trifluoromethyl)-1,2,4-oxadiazol-3-yl)phenyl)ethan-1-one]
inhibition of growth at 300 ppm (Pyricularia oryzae): ≥ 70% | inhibition of growth at 300 ppm (Colletotrichum capsici): ≥ 70%

Cc1ccccc1NCC(=O)c1ccc(-c2noc(C(F)(F)F)n2)cc1 [Compound 146, 2-(o-tolylamino)-1-(4-(5-(trifluoromethyl)-1,2,4-oxadiazol-3-yl)phenyl)ethan-1-one]
inhibition of growth at 300 ppm (Colletotrichum capsici): ≥ 70%

O=C(CSc1ncn[nH]1)c1ccc(-c2noc(C(F)(F)F)n2)cc1 [Compound 149, 2-((1H-1,2,4-triazol-5-yl)thio)-1-(4-(5-(trifluoromethyl)-1,2,4-oxadiazol-3-yl)phenyl)ethan-1-one]
inhibition of growth at 300 ppm (Pyricularia oryzae): ≥ 70% | inhibition of growth at 300 ppm (Alternaria solani): ≥ 70% | inhibition of growth at 300 ppm (Colletotrichum capsici): ≥ 70%

Cc1nnc(SCC(=O)c2ccc(-c3noc(C(F)(F)F)n3)cc2)o1 [Compound 150, 2-((5-methyl-1,3,4-oxadiazol-2-yl)thio)-1-(4-(5-(trifluoromethyl)-1,2,4-oxadiazol-3-yl)phenyl)ethan-1-one]
inhibition of growth at 300 ppm (Pyricularia oryzae): ≥ 70% | inhibition of growth at 300 ppm (Alternaria solani): ≥ 70%
